What all share (format): cell-based
Assay [1] deals with U937 cells. Description: Cellular growth inhibition assay (CTG), U937 cells. The following applies: Homo sapiens, U-937, CellTiter-Glo 2.0, day-5. How it is done:
(§1) Cells were seeded in Poly-D-lysine-treated 384-well white plates, with 25 μL cell suspension at 250 cells/well for continuous treatments, and 1000 cells/well for washout treatments. Plates were spun at 300×g for 3 minutes, and cells were cultured at 37° C. with 5% CO2 in a humidified tissue culture incubator.
(§2) After 24 hours, the test compounds were diluted with cell culture medium in 96 deep well plates. DMSO was used as a negative control. A 25 μL aliquot of compound-containing medium was added in each well, at a final top concentration of 10 μM or 30 μM test compound, with 3-fold dilutions. For washout assays, after 4 hours, cell medium with compound was removed, and the cells were washed with 75p L fresh medium. Plates were then spun at 300×g for 3 minutes and replaced with 50 μL fresh medium in each well. Plates were then spun at 300×g for 3 minutes again and cultured at 37° C. with 5% CO2.
(§3) At day-0 and day-5 of compound treatments, cell viability was quantified with CellTiter-Glo 2.0 (Promega). After equilibrating cell plates at room temperature for 30 minutes, 25 μL CellTiter-Glo 2.0 reagent was dispensed into each well (on top of 50 μL of cell culture). Plates were mixed on a shaker for 2 minutes at 500 rpm, followed by a 10-minute incubation at room temperature. Luminescence readings were measured with an EnVision Plate Reader. Data was normalized to DMSO treated day-0 cell wells. A four-parameter non-linear regression curve fit was applied to dose-response data in Prism to determine the half maximal growth inhibitory concentration (GI50) of each compound.
In general terms: In ATP-based viability assays light output follows the ATP content of the culture.

The subject of assay [2] is 22RV1 cells. In words: Cellular growth inhibition assay (CTG), 22RV1 cells. The following applies: Homo sapiens, CellTiter-Glo 2.0, day-5. The procedure: as §1, §2, §3
The target in assay [3] is T1, GSPT1 (Homo sapiens, UniProt P15170+Q96SW2).
T1 construct: host or cells: HEK293 LgBiT cell line
T1 sequence (P15170 whole entry): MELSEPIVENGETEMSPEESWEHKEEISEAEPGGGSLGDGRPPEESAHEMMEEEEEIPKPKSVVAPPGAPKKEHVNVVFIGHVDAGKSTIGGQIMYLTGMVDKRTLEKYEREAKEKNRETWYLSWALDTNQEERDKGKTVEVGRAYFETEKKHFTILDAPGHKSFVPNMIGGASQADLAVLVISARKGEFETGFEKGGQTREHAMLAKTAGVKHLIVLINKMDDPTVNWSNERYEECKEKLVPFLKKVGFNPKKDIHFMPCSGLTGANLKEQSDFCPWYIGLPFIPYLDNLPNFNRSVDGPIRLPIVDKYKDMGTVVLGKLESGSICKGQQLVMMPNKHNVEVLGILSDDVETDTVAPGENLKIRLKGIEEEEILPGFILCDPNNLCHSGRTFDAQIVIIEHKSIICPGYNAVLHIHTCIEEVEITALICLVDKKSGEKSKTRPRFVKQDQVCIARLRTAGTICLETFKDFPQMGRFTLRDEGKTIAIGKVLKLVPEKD
T1 sequence (Q96SW2 whole entry): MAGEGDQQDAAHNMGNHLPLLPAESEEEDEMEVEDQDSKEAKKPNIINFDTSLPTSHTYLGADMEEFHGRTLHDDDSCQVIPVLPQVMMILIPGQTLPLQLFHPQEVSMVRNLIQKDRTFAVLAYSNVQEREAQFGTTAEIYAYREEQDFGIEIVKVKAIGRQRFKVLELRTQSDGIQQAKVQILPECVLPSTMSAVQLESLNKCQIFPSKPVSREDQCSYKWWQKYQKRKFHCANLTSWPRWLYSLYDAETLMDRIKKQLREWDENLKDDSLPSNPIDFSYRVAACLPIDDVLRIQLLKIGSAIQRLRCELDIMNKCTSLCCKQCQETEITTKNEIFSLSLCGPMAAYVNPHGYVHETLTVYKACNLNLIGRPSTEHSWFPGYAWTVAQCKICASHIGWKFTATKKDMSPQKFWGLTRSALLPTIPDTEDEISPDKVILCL
T1 sequence (Q16531 whole entry partner): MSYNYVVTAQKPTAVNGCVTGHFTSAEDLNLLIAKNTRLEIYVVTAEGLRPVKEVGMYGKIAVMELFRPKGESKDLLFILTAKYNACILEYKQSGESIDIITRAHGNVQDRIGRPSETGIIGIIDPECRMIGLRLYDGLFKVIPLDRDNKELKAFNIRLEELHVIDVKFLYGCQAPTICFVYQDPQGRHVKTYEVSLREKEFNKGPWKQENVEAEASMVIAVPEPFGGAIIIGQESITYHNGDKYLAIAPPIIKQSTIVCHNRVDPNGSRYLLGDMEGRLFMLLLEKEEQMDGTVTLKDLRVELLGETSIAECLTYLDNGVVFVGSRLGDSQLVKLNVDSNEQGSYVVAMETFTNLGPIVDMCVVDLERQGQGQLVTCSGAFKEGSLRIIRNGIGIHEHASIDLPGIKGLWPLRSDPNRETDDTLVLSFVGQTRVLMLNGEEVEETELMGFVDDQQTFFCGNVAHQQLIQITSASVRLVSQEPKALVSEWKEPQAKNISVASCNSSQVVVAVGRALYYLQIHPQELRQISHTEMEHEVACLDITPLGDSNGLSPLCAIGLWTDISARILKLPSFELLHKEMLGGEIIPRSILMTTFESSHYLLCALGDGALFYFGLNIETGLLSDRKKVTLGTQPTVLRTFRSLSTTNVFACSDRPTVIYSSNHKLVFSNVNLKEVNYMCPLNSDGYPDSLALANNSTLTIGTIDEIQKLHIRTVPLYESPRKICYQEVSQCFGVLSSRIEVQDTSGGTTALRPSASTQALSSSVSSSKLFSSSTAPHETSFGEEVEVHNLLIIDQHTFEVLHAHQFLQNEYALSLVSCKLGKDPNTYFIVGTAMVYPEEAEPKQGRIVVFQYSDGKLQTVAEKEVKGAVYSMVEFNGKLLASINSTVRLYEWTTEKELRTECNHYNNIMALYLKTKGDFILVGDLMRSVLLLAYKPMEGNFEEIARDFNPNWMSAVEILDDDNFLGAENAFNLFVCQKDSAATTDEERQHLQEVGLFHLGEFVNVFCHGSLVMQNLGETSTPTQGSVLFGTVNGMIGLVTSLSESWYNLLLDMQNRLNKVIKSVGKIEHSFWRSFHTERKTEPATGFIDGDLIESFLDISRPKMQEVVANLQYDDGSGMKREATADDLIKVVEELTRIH
Description: GSPT1 HiBit degradation assay. The following applies: HEK293 LgBiT cells expressing GSPT1_HiBiT, luminescence after 6 hours. An outline of the steps: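 Degradation readout is luminescence at 6 h, with DC50 taken as the concentration giving 50% GSPT1 loss. Compound titrations were added together with endurazine (0.5× final) to HEK293 LgBiT/GSPT1-HiBiT cells seeded the day before and kept at 37 °C.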
A general note: With HiBiT, luminescence reflects the tagged protein that the partner subunit can reach.

For assay [4], the system named is 293 mutant EGFR_T790M L858R Cells. Description: Cellular growth inhibition assay (CTG), 293 mutant EGFR_T790M L858R cells. The following applies: 293 mutant EGFR T790M L858R cells, CellTiter-Glo 2.0, day-5. How it is done: as §1, §2, §3

Take `Nc1ncnc2c1c(-c1ccc(Oc3ccccc3)cc1)nn2[C@@H]1CCCN(C(=O)/C=C/COCCOCCOCCOCCOCCOCCOCCOc2cc(Cl)cc(NC(=O)NCc3ccc4c(c3)CN(C3CCC(=O)NC3=O)C4=O)c2)C1` (stereo partly shown) [Compound I-30]: in assay [1], the concentration for 50% growth inhibition (GI50) (usually the concentration that inhibits growth by half) lay in the range of 100 to 1000 nM.

With `CC1(C)[C@H](NC(=O)c2ccc(OCCOCCOCCOCCOCCOCCOCCOCCOCCOCCOCCOc3cc(Cl)cc(NC(=O)NCc4ccc5c(c4)CN(C4CCC(=O)NC4=O)C5=O)c3)cc2)C(C)(C)[C@H]1Oc1ccc(C#N)c(Cl)c1` (stereo partly shown) [Compound I-21, N-[3-(3-chloro-4-cyano-phenoxy)-2,2,4,4-tetramethyl-cyclobutyl]-4-[2-[2-[2-[2-[2-[2-[2-[2-[2-[2-[2-[3-chloro-5-[[2-(2,6-dioxo-3-piperidyl)-1-oxo-isoindolin-5-yl]methylcarbamoylamino]phenoxy]ethoxy]ethoxy]ethoxy]ethoxy]ethoxy]ethoxy]ethoxy]ethoxy]ethoxy]ethoxy]ethoxy]benzamide], the GI50 in assay [2] was in the range of 100 to 1000 nM. In addition, the 50% degradation concentration (DC50) (commonly the midpoint of the concentration-degradation curve) in assay [3] (Table 3) lay within 250 to 5000 nM. For `CC1(C)[C@H](NC(=O)c2ccc(OCCOCCOCCOCCOCCOCCOCCc3cc(Cl)cc(NC(=O)NCc4ccc5c(c4)CN(C4CCC(=O)NC4=O)C5=O)c3)cc2)C(C)(C)[C@H]1Oc1ccc(C#N)c(Cl)c1` (stereo partly shown) [Compound I-22, N-((1r,3r)-3-(3-chloro-4-cyanophenoxy)-2,2,4,4-tetramethylcyclobutyl)-4-((20-(3-chloro-5-(3-((2-(2,6-dioxopiperidin-3-yl)-1-oxoisoindolin-5-yl)methyl)ureido)phenyl)-3,6,9,12,15,18-hexaoxaicosyl)oxy)benzamide] the same measures were < 100 nM and < 250 nM. Compound `Nc1ncnc2c1c(-c1ccc(Oc3ccccc3)cc1)nn2[C@@H]1CCCN(C(=O)/C=C/COCCOCCOCCOCCOCCOCCOCCOCCOCCOc2cc(Cl)cc(NC(=O)NCc3ccc4c(c3)CN(C3CCC(=O)NC3=O)C4=O)c2)C1` (stereo partly shown) [Compound I-31] registered a 50% growth inhibitory concentration (GI50) in assay [1] of 1000 to 5000 nM. The compound further displayed a DC50 in assay [3] (Table 3) of 250 to 5000 nM. Regarding `CN(C/C=C/C(=O)N1CCC([C@@H]2CCNc3c(C(N)=O)c(-c4ccc(Oc5ccccc5)cc4)nn32)CC1)CCOCCOCCOCCOCCOCCOCCOCCOCCCCCCCCc1cc(Cl)cc(NC(=O)NCc2ccc3c(c2)CN(C2CCC(=O)NC2=O)C3=O)c1` (stereo partly shown) [Compound I-76], in assay [1], the GI50 was < 100 nM. The 50% degradation concentration (DC50) in assay [3] (Table 3) was < 250 nM. For `CN(C/C=C/C(=O)N1CCC([C@@H]2CCNc3c(C(N)=O)c(-c4ccc(Oc5ccccc5)cc4)nn32)CC1)CCOCCOCCOCCOCCOCCOCCCCCCCCc1cc(Cl)cc(NC(=O)NCc2ccc3c(c2)CN(C2CCC(=O)NC2=O)C3=O)c1` (stereo partly shown) [Compound I-75] the same measures were < 100 nM and < 250 nM. Take `Nc1ncnc2c1c(-c1ccc(Oc3ccccc3)cc1)nn2[C@@H]1CCCN(C(=O)/C=C/COCCOCCOCCOCCOCCOCCOCCOCCOCCOCCOCCOc2cc(Cl)cc(NC(=O)NCc3ccc4c(c3)CN(C3CCC(=O)NC3=O)C4=O)c2)C1` (stereo partly shown) [Compound I-32]: the 50% growth inhibitory concentration (GI50) in assay [1] was in the range of 1000 to 5000 nM. `CC1(C)[C@H](NC(=O)c2ccc(OCCOCCOCCOCCOCCOCCOCCOCCOCCOc3cc(Cl)cc(NC(=O)NCc4ccc5c(c4)CN(C4CCC(=O)NC4=O)C5=O)c3)cc2)C(C)(C)[C@H]1Oc1ccc(C#N)c(Cl)c1` (stereo partly shown) [Compound I-20, N-[3-(3-chloro-4-cyano-phenoxy)-2,2,4,4-tetramethyl-cyclobutyl]-4-[2-[2-[2-[2-[2-[2-[2-[2-[2-[3-chloro-5-[[2-(2,6-dioxo-3-piperidyl)-1-oxo-isoindolin-5-yl]methylcarbamoylamino]phenoxy]ethoxy]ethoxy]ethoxy]ethoxy]ethoxy]ethoxy]ethoxy]ethoxy]ethoxy]benzamide]: the GI50 in assay [2] is < 100 nM. The DC50 in assay [3] (Table 3) was 250 to 5000 nM. As for `CN(C/C=C/C(=O)N1CCC[C@@H](n2nc(-c3ccc(Oc4ccccc4)cc3)c3c(N)ncnc32)C1)CCOCCOCCOCCOCCOCCOCCOCCOCCCCCCCCc1cc(Cl)cc(NC(=O)NCc2ccc3c(c2)CN(C2CCC(=O)NC2=O)C3=O)c1` (stereo partly shown) [Compound I-73], the 50% growth inhibitory concentration (GI50) in assay [1] is < 100 nM. Besides, in assay [3] (Table 3), the DC50 is < 250 nM. Consider `CC1(C)[C@H](NC(=O)c2ccc(OCCOCCOCCOCCOCCOCCOCCOc3cc(Cl)cc(NC(=O)NCc4ccc5c(c4)CN(C4CCC(=O)NC4=O)C5=O)c3)cc2)C(C)(C)[C@H]1Oc1ccc(C#N)c(Cl)c1` (stereo partly shown) [Compound I-19, N-((1r,3r)-3-(3-chloro-4-cyanophenoxy)-2,2,4,4-tetramethylcyclobutyl)-4-((20-(3-chloro-5-(3-((2-(2,6-dioxopiperidin-3-yl)-1-oxoisoindolin-5-yl)methyl)ureido)phenoxy)-3,6,9,12,15,18-hexaoxaicosyl)oxy)benzamide], for which the concentration for 50% growth inhibition (GI50) in assay [2] is < 100 nM. For the same compound, in assay [3] (Table 3), the DC50 was in the range of 250 to 5000 nM. For the compound `CN(C/C=C/C(=O)N1CCC([C@@H]2CCNc3c(C(N)=O)c(-c4ccc(Oc5ccccc5)cc4)nn32)CC1)CCOCCOCCOCCOCCCCCCCCc1cc(Cl)cc(NC(=O)NCc2ccc3c(c2)CN(C2CCC(=O)NC2=O)C3=O)c1` (stereo partly shown) [Compound I-74], the GI50 in assay [1] is < 100 nM. Also, the DC50 in assay [3] (Table 3) was < 250 nM.

Compound `COc1cc(N(C)CCN(C)C)c(NC(=O)/C=C/CN(C)CCOCCOCCOCCOCCOCCOCCOCCCCCc2cc(Cl)cc(NC(=O)NCc3ccc4c(c3)CN(C3CCC(=O)NC3=O)C4=O)c2)cc1Nc1nccc(-c2cn(C)c3ccccc23)n1` (stereo not shown) [Compound I-146] had a half-maximal degradation concentration (DC50) in assay [3] (Table 3A) of 250 to 5000 nM. Moreover, in assay [4], the 50% growth inhibitory concentration (GI50) is 1000 to 5000 nM. In the case of `CN(C/C=C/C(=O)N1CCC[C@@H](n2nc(-c3ccc(Oc4ccccc4)cc3)c3c(N)ncnc32)C1)CCOCCOCCOCCOCCCCCCCCc1cc(Cl)cc(NC(=O)NCc2ccc3c(c2)CN(C2CCC(=O)NC2=O)C3=O)c1` (stereo partly shown) [Compound I-67], in assay [1], the GI50 is < 100 nM. Further, in assay [3] (Table 3), the 50% degradation concentration (DC50) is < 250 nM. As to `C=CC(=O)Nc1cc(Nc2nccc(-c3cn(C)c4ccccc34)n2)c(OC)cc1N(C)CCN(C)CCOCCOCCOCCOCCOCCOCCOCCOCCOCCCCCc1cc(Cl)cc(NC(=O)NCc2ccc3c(c2)CN(C2CCC(=O)NC2=O)C3=O)c1` (stereo not shown) [Compound I-160], in assay [3] (Table 3A), the DC50 was 250 to 5000 nM. The 50% growth inhibitory concentration (GI50) in assay [4] was 100 to 1000 nM. Regarding `COc1nn(C)cc1Nc1nc(N2CC(NC(=O)/C=C/CN(C)CCOCCOCCOCCCCCc3cc(Cl)cc(NC(=O)NCc4ccc5c(c4)CN(C4CCC(=O)NC4=O)C5=O)c3)[C@H](F)C2)nc2c1ncn2C` (stereo partly shown) [Compound I-150], the DC50 in assay [3] (Table 3A) was 250 to 5000 nM. Besides, the GI50 in assay [4] is 1000 to 5000 nM. In assay [3] (Table 3A), `COc1nn(C)cc1Nc1nc(N2CC(NC(=O)/C=C/CN(C)CCOCCOCCOCCOCCOCCOCCOCCOCCOCCCCCc3cc(Cl)cc(NC(=O)NCc4ccc5c(c4)CN(C4CCC(=O)NC4=O)C5=O)c3)[C@H](F)C2)nc2c1ncn2C` (stereo partly shown) [Compound I-131] showed a DC50 of 250 to 5000 nM. In assay [4], the GI50 lay in the range of 1000 to 5000 nM. On to `CN(C/C=C/C(=O)N1CCC[C@@H](n2nc(-c3ccc(Oc4ccccc4)cc3)c3c(N)ncnc32)C1)CCOCCOCCOCCOCCOCCOCCCCCCCCc1cc(Cl)cc(NC(=O)NCc2ccc3c(c2)CN(C2CCC(=O)NC2=O)C3=O)c1` (stereo partly shown) [Compound I-72], for which the GI50 in assay [1] is < 100 nM. Also, the 50% degradation concentration (DC50) in assay [3] (Table 3) is < 250 nM. For the compound `C=CC(=O)Nc1cc(Nc2nccc(-c3cn(C)c4ccccc34)n2)c(OC)cc1N(C)CCN(C)CCOCCOCCOCCCCCc1cc(Cl)cc(NC(=O)NCc2ccc3c(c2)CN(C2CCC(=O)NC2=O)C3=O)c1` (stereo not shown) [Compound I-102], in assay [3] (Table 3A), the DC50 was in the range of 250 to 5000 nM. In assay [4], this compound had a 50% growth inhibitory concentration (GI50) of 1000 to 5000 nM.

The values are drawn from patent publication US20240238424A1, “HETEROBIFUNCTIONAL COMPOUNDS AND METHODS OF TREATING DISEASE” (Halda Therapeutics OpCo, Inc., priority 2021, published 2024).
